# Experimental data reported in patent publication US12054488B2, “Pyrazolopyrimidine compound and preparation method therefor and use thereof in preparation of anti-cancer drug” (SUZHOU RAYMON PHARMACEUTICALS COMPANY, LTD., priority 2018, dated 2024).
# Biological target: PI3K-alpha enzyme (Homo sapiens (Human), UniProt P42336)
# Assay: PI3-Kinase (human) HTRF Assay kit, PI3K alpha enzyme IC50 determination
# Type: biochemical
# Conditions: ATP 10 μM, PIP2 10 μM, 1% DMSO, 30 min at room temperature, double holes per concentration, read-out: half inhibitory concentration (IC50) on PI3K-alpha
# Description: • 4× Reaction Buffer was diluted to 1× with ddH2O, and 1M DTT was added to make the final concentration of 5 mM. Prepare fresh before each use. For example, to prepare 10 mL 1× Reaction Buffer, adding 2.5 mL 4× Reaction Buffer, 50 μL 1 M DTT, and 7.45 mL ddH2O. Throughout the experiment, freshly prepared 1× Reaction Buffer was used to prepare ATP working solution, substrate and enzyme mixed working solution, etc.
# • The compound to be tested was dissolved in DMSO to 1 mM as a storage solution, and then diluted with DMSO in a 4-fold ratio for a total of 10 concentration points. 1 μL of each was added to 24 μL 1× Reaction Buffer. 5 μL of each diluted solution was added into a 384-well plate and contained 1% DMSO.
# • 1× reaction buffer was used to prepare 2×PIP2 working solution to make the final concentration of 20 μM and PIP2 reaction final concentration of 10 μM, for example, to prepare 1 ml 1× reaction buffer/PIP2 working solution, add 20 μL of PIP2 to 980 μL 1× reaction buffer. This working solution should be prepared with 0.1-0.2 ml more to meet the control usage and dead volume.
# • The kinase was diluted with 2×PIP2 working solution, and the concentration of the kinase working solution was 10 ng/well.
# • That is, 2×PIP2 working solution.
# • 10 mM ATP was diluted to 40 μM with 1× reaction buffer. In a 20 μL kinase reaction system, the concentration of ATP was 10 μM. For example, to prepare 2 ml ATP working solution, take 8 μL 10 mM ATP and add it to 1992 μL 1× reaction buffer.
# • Stop A and Stop B were mixed in a ratio of 3:1 and can be used after at least 2 hours at room temperature.
# • DM C, DM A and DM B were mixed in a ratio of 18:1:1, and can be used after at least 2 hours at room temperature.
# • Emission Ratio (ER)=[…] Emission signal/620 nm Emission signal • The average emission intensity ratio (Emission Ratio) of the 100% inhibition control is recorded as: ER100% • The average Emission Ratio of the 0% inhibition control is recorded as: ER0%
# • The inhibition rate is calculated with the following formula: Inhibition rate=(ERsample−ER0%)/(ER100%−ER0%)×100% [(ERpositive−ERsample)/(ERpositive−ERnegative)*100%]
# PI3K-alpha enzyme, sequence (P42336 whole entry): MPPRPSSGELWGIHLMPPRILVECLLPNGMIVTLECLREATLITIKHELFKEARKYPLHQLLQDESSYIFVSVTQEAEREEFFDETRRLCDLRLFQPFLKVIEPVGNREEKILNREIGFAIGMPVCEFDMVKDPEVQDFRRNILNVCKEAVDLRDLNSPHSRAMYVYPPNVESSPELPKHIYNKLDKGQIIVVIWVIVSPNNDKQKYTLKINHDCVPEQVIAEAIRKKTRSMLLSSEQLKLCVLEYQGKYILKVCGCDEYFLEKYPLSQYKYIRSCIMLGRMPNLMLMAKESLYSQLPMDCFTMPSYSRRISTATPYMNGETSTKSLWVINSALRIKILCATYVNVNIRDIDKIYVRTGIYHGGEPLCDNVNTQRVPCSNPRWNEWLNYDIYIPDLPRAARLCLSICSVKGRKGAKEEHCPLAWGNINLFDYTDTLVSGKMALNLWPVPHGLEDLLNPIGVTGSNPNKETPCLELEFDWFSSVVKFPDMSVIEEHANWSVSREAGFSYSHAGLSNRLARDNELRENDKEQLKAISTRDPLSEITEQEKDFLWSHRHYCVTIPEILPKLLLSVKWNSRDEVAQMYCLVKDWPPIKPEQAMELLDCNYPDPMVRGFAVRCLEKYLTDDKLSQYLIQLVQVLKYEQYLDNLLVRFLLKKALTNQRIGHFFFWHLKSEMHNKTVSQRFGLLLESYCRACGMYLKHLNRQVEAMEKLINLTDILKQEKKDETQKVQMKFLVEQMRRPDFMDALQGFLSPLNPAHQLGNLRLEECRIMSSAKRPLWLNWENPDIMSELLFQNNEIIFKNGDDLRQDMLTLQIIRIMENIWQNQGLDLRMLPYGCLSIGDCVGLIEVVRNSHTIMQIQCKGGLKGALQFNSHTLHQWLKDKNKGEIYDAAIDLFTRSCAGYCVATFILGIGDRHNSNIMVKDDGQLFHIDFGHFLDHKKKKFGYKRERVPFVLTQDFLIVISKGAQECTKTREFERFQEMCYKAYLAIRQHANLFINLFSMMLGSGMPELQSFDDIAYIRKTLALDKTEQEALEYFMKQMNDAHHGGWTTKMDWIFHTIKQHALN
# PI3K-alpha enzyme, sequence (P27986 whole entry partner): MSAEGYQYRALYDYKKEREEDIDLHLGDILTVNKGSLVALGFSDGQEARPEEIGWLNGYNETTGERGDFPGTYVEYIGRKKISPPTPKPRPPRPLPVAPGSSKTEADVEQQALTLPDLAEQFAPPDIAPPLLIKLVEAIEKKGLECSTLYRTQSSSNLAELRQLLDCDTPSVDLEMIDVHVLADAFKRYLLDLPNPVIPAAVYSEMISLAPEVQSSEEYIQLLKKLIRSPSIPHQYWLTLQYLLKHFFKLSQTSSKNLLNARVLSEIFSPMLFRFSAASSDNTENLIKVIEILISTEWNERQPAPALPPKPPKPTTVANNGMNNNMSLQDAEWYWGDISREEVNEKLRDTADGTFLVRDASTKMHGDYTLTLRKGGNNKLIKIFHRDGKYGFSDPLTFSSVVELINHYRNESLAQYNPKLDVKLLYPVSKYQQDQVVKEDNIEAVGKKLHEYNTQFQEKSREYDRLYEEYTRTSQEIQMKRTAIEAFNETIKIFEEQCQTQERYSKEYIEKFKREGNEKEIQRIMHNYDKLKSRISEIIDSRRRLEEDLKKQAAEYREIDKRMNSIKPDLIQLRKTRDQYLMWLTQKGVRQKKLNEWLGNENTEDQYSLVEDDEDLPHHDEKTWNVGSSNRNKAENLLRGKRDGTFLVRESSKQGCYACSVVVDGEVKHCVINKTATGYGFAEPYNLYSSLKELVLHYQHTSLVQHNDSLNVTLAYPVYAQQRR
row,Structure (SMILES),IC50
1,"CC1(C)C(=O)Nc2cc(NC(=O)Nc3ccc(-c4nc(N5CCOCC5)c5[nH]nc(N)c5n4)cc3)ccc21 [Compound I-4, 1-(4-(3-amino-7-morpholino-1H-pyrazolo[4,3-d]pyrimidin-5-yl)phenyl)-3-(3,3-dimethyl-2-oxoindolin-6-yl)urea]",108 nM
2,"Nc1n[nH]c2c(N3CCOCC3)nc(-c3ccc(NC(=O)Nc4ccc(CO)c(C(F)(F)F)c4)cc3)nc12 [Compound I-5, 1-(4-(3-amino-7-morpholino-1H-pyrazolo[4,3-d]pyrimidin-5-yl)phenyl)-3-(4-(hydroxymethyl)-3-(trifluoromethyl)phenyl)urea]",228 nM
3,"CC(C)(O)c1ccc(NC(=O)Nc2ccc(-c3nc(N4CCOCC4)c4[nH]nc(N)c4n3)cc2)cc1 [Compound I-2, 1-(4-(3-amino-7-morpholino-1H-pyrazolo[4,3-d]pyrimidin-5-yl)phenyl)-3-(4(2-hydroxypropan-2-yl)phenyl)urea]",89.6 nM

# Next, values leading:
row,IC50,Structure (SMILES)
1,10.7 nM,"Nc1n[nH]c2c(N3CCOCC3)nc(-c3ccc(NC(=O)Nc4ccc(CO)cc4)cc3)nc12 [Compound I-1, 1-(4-(3-amino-7-morpholino-1H-pyrazolo[4,3-d]pyrimidin-5-yl)phenyl)-3-(4-(hydroxymethyl)phenyl)urea]"
2,40.9 nM,"Nc1n[nH]c2c(N3CCOCC3)nc(-c3ccc(NC(=O)Nc4ccc(COCCN5CCOCC5)cc4)cc3)nc12 [Compound I-6, 1-(4-(3-amino-7-morpholino-1H-pyrazolo[4,3-d]pyrimidin-5-yl)phenyl)-3-(4-((2-morpholinoethoxy)methyl)phenyl)urea]"
3,89.1 nM,"CS(=O)(=O)NC(=O)Cc1ccc(NC(=O)Nc2ccc(-c3nc(N4CCOCC4)c4[nH]nc(N)c4n3)cc2)cc1 [Compound I-3, 2-(4-(3-(4-(3-amino-7-morpholino-1H-pyrazolo[4,3-d]pyrimidin-5-yl)phenyl)ureido)phenyl)-N-(methylsulfonyl)acetamide]"
